Experiment [1] addresses T1, Mitogen-activated protein kinase kinase kinase 5 (Homo sapiens) (UniProt Q99683).
T1 sequence (whole entry): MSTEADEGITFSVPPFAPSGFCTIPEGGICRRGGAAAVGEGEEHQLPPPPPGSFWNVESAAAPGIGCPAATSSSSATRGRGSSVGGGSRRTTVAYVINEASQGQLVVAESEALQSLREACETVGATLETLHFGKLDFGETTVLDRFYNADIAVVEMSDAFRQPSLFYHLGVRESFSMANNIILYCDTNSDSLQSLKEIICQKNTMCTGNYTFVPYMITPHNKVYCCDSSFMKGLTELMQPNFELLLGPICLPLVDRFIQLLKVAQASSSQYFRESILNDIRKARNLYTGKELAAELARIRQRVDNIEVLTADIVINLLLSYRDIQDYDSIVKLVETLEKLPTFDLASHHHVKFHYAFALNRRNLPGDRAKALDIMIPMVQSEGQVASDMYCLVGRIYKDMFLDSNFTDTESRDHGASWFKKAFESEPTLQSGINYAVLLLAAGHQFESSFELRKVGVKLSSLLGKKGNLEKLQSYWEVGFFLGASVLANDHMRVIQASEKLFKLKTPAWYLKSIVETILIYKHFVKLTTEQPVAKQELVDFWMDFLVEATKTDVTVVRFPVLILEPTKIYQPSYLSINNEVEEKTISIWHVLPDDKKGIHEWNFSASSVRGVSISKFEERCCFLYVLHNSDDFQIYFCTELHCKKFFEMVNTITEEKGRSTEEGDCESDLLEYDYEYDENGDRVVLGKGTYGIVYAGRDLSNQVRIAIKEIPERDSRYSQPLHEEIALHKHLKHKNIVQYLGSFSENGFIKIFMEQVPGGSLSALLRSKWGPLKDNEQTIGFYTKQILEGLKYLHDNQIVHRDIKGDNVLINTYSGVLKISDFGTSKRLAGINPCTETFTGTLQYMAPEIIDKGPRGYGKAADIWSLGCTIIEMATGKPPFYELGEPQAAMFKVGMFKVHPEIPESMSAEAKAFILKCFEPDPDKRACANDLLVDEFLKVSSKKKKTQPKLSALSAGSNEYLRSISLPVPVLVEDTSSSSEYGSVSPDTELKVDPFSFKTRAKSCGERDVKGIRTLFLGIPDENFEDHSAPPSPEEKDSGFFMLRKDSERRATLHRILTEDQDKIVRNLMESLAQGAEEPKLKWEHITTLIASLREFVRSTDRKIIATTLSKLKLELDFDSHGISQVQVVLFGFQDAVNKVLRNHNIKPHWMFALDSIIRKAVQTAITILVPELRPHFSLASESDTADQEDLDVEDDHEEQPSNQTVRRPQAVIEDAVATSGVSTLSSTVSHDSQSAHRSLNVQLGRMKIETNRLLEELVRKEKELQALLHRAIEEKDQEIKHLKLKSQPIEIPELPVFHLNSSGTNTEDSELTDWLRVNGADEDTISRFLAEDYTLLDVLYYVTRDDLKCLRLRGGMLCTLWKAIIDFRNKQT
As to the kind of experiment: Selectivity interaction (ActivX KiNativ screen (ex vivo kinase selectivity in human PBMCs)) EUB0001619a MAP3K5. The format is cell-based. The conditions noted are these: PBMC, at 1 µM.

In experiment [2] the target is Serine/threonine-protein kinase 26 (Homo sapiens, UniProt Q9P289). Conditions: PBMC, at 1 µM.
In experiment [3] the target is Death-associated protein kinase 2 (Homo sapiens) (UniProt Q9UIK4). Conditions: at 10 µM.
Experiment [4] deals with T2, Serine/threonine-protein kinase TBK1 (Homo sapiens) (UniProt Q9UHD2).
T2 sequence (whole entry): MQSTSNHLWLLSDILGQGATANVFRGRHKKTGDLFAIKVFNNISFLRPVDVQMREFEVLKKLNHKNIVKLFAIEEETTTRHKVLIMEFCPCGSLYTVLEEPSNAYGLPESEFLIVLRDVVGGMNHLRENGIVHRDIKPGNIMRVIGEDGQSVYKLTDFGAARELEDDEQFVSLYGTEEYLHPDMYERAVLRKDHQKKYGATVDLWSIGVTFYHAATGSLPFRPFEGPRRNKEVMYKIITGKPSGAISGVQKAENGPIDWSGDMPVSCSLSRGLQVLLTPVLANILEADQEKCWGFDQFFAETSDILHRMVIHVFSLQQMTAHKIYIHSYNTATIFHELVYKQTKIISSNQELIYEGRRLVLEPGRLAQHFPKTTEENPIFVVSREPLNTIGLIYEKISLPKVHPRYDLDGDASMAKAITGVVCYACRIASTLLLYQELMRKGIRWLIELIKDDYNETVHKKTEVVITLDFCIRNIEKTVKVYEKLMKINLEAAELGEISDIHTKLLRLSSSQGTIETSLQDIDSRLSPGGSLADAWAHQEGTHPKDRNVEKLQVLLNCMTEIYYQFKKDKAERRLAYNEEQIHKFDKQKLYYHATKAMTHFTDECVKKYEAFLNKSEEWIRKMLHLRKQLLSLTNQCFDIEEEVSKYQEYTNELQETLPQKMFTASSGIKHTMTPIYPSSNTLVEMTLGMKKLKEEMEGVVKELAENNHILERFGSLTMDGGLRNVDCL
Nature of the experiment: Selectivity interaction (Kinase panel (KiNativ target engagement assay in Jurkat cells)) EUB0001635a TBK1. It is filed as cell-based. Conditions: Selectivity number of off-targets 0.0, Selectivity number of targets 233.0, Source Knowledge https://www.sciencedirect.com/science/article/pii/S2451945619300674?via%3Dihub, at 1 µM.

Death-associated protein kinase 2 (Homo sapiens), sequence (Q9UIK4 whole entry, looked up): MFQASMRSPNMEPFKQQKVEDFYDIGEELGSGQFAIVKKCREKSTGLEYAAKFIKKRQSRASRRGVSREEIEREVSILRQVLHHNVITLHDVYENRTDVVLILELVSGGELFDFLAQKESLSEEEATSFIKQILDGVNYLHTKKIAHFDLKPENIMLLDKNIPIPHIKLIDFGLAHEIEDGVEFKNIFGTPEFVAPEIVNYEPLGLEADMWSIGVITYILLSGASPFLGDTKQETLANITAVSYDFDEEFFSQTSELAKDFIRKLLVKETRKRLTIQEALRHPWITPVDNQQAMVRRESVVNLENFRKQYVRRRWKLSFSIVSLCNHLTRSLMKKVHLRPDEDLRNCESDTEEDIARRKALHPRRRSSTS
Serine/threonine-protein kinase 26, sequence (Q9P289 2-416 limits assumed): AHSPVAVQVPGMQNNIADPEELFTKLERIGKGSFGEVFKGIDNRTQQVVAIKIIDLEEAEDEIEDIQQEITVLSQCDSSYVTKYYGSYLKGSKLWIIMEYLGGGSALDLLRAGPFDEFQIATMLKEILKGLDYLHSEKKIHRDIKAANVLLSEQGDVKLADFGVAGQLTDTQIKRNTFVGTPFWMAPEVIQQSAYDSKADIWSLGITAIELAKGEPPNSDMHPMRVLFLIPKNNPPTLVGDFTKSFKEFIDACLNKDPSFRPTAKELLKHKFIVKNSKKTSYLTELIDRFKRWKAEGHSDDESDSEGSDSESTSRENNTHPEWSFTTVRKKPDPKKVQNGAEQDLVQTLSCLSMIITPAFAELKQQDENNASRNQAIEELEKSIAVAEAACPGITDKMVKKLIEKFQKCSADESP

Consider `N#Cc1cccc(-c2c[nH]c3ncnc(N4CCOCC4)c23)c1`, for which the % of inhibition in experiment [1] was determined as 21%; in experiment [2], 39%.
Compound `CCN(CC)CCCCNc1ncc2cc(-c3cc(OC)cc(OC)c3)c(NC(=O)NC(C)(C)C)nc2n1` returned a % of control in experiment [3] of 100%.
`C=CC(=O)Nc1ccc(C(=O)Nc2[nH]nc3c2CN(C(=O)N[C@H](CN(C)C)c2ccccc2)C3(C)C)cc1` had a % of engagement in experiment [4] of 32.4%.

The values are drawn from ChEMBL document CHEMBL5465560, “Selectivity Literature for EUbOPEN Chemogenomic Library” (2024).
